Assay results published in patent US11478526B2, “Methods of reducing neuroinflammation or toxicity induced by amyloid beta (abeta) using glucocorticoid induced leucine zipper (GILZ) analog peptides” (INDIANA UNIVERSITY RESEARCH AND TECHNOLOGY CORPORATION, priority 2016, dated 2022).

Experiments:
[1] = LD50 predicted from in-vitro IC50 by regression (Speilmann method); conditions: for LD50 estimated from IC50: Log (LD50)=0.506×(log IC50)+0.475, body weight; for LD50 (mM): score 1/0
Method: Lactate dehydrogenase (LDH) assay: To detect direct GA-induced cell lysis we performed LDH release assays (Roche Molecular Diagnostics). […] Approximately 5×10^4 U373 cells/well were cultured in 96-well plates in the presence of increasing concentrations of individual GA or control peptide from 0.5 μM to 500 μM. Cells treated with 2% triton-X 100 (Sigma Aldrich, St. Louis, Mo.) for 10 minutes served as positive control. Untreated cells served as controls for spontaneous LDH-release. Specific LDH-release was calculated according to the following formula: LDH-release %=100*(GA or control peptide treated cells—untreated cells)/(positive control-untreated cells). The IC50 values were extrapolated by logarithmic estimation. The LD50 in mg/kg was predicted using the formula, Log (LD50)=0.506×(log IC50)+0.475. […]

[2] = tested on: primary human fetal brain cells (HFB); experiment: CTG viability of primary human fetal brain cultures with or without Aβ1-42; type: cell-based; conditions: for viability of Aβ1-42 exposed HFB cells: Aβ1-42 10 μM
Method: Functional assays in human primary mixed brain cultures (HFB). Primary cultures of mixed HFB were prepared from the brain parenchyma of aborted fetuses (80-100 days gestational age). The tissues were obtained from the Birth Defects Research Laboratory (BDRL) at the University of Washington, Seattle with approval from the Indiana University Institutional Review Board (IRB). The IRB determined that the use of anonymous human biological materials received from this depository is not considered as human subjects research (supplementary document, s1). The NIH funded BDRL tissue distribution program operates separately in full compliance with all relevant state and federal laws and regulations with donors providing written informed consent.
Fetal brain materials (10-20 g) were shipped overnight in chilled Hibernate-E medium (Invitrogen) supplemented with B27 (Invitrogen), GlutaMAX (Invitrogen) and antibiotic-antimycotic solution (Cellgro). HFB were prepared and cultured as described. Briefly, cells were cultured in Neurobasal medium (Invitrogen) without phenol red supplemented with 1×B27, […] GlutaMAX, 1×antibiotic cocktail, 5 ng/mL recombinant fibroblast growth factor 2 (bFGF) (Invitrogen), and 2 μL/mL Normocin (InVivoGen, San Diego, Calif., USA). Cells were counted and seeded onto poly-D-lysine (Sigma-Aldrich) coated 24-well plates (Corning, Lowell, Mass., USA) at 1.5×10^5 cells per well and maintained at 37° C. in a 5% CO2 incubator. Half media changes were performed every 4th day of culture and morphology was monitored via phase contrast microscopy. Culture medium was removed from cells on day 17 (DIV17) and replaced with Neurobasal medium with B27. […] Cells and conditioned media were harvested and stored for further analysis. Relative ATP concentration was measured using the CTG kit (Promega). Data is presented as ΔRLU=RLU of Aβ1-42 exposed cells-RLU unexposed cells. Conditioned media collected were assessed for specific cytokines using the OptEIA kits (BD Biosciences). Nuclear and cytoplasmic fractions were extracted using the CelLytic™ NuCLEAR™ Extraction Kit (Sigma) following manufacturer's protocol. Five microgram of nuclear extracts was incubated in a 96-well plate coated with oligonucleotides containing the NF-κβ consensus nucleotide sequence (5′-[…]-3′) (SEQ ID NO: 30). The activated NF-κβ bound to DNA was detected by anti-p65 antibody followed by a peroxidase coupled secondary antibody and substrate using the TransAM kit protocol (Active Motif). Nuclear extracts of Raji cells was used as the positive control.
Select PGA protects against Aβ1-42 induced toxicity, prevents p65 activation and cytokine response in human fetal brain (HFB) cells. […] Viability in terms of relative luminescent Units (RLU) was quantified using a Glowmax luminometer (Promega, Wis.). Data are presented as ARLU=RLU of Aβ1-42 exposed cells-RLU of unexposed cells. […] The mean RLU of vehicle treated HFB varied between 7352.75+/−1265.2 and 16157.5+/−4950. Average RLU of cultures exposed to Aβ1-42 varied between 6067.25+/−903.05 and 11574.25+/−4139.3 in different experiments. […] The culture supernatants were assessed for cytokines by ELISA (R&D Systems, Minn.). […] Primary HFB cultured similarly and harvested at the end of 4 hours was assessed for nuclear p65 using TransAM kit for NF-κB p65 (Active Motif, Calif.).

[3] = tested on: LPS induced neuroinflammation; experiment: LPS induced neuroinflammation: real time PCR of brain tissue; type: in vivo, mouse; conditions: 25 mg/kg i.v. alternate days, day 7
Method: Animals and lipopolysaccharide induced neuroinflammation: Male C57/6J mice weighing 32 to 37 grams were housed five per cage at a temperature of 22±2° C. with 12 hour light/12 hour dark cycles with free access to laboratory food and water. Lipopolysaccharides (LPS) from Escherichia coli 026:B6, =10,000 EU/mg, purified by phenol extraction was purchased from Sigma (Sigma Aldrich, Mo., USA). The mice were randomly divided into seven groups: LPS, LPS+GA-1 or GA-2 or CP-1 or CP-2 or CP-3 or TAT. The LPS was administered intraperitoneally at […] in 100 μl of sterile saline followed by corn oil in the morning daily for six days. The GA or CP was administered intravenously at 25 mg/kg in 100 μl of sterile saline on alternate days. Additional control group included mice receiving saline alone. All animals were sacrificed on day 7.
Real time polymerase chain reaction. Total cellular RNA was isolated from each brain tissue using Qiagen kit (Invitrogen, Carlsbad, Calif.) following manufacturer's protocol and reverse transcribed using iScript cDNA synthesis kit (Biorad, Calif.). Equal amount of cDNA measured by the Nanodrop (ThermoFisher Scientific, Waltham, USA) was used for amplification of IL-1β, IL-12, CD14, BclXL and Bcl2. Real time PCR was performed using SYBR green/ROX qPCR master mix (SA Biosciences, Frederick, Md.) on the ABI Prism 7000 sequence detection system (Applied Biosystem, Foster City, Calif., USA). Each reaction contains 2×12.5 μl of master mix, 1 μl of 10 μM of primers and 50 ng of the cDNA, to a total volume of 25 μl. The thermal cycling conditions included an initial denaturation step at 50° C. for 2 min, 95° C. for 3 min, 39 cycles at 95° C. for 30 s, annealing temperature at 62° C. for 30 s and extension at 72° C. for 30 s.
The gene specific threshold cycle (Ct) for each sample (ΔCt) was corrected by subtracting the Ct for the housekeeping gene β-actin. Untreated controls were chosen as the reference samples. The ΔCt for all experimental samples was subtracted by the ΔCt for the control samples (ΔΔCt).The difference in each gene specific threshold between the sample from vehicle treated and GA or CP treated cells was determined to obtain the relative change in the specific mRNA. The magnitude of change in the mRNA was expressed as 2^−ΔΔCt. Each measurement of a sample was performed in duplicates.

[4] = tested on: differentiated SK-N-SH neuroblastoma cells; experiment: Cellular morphology and CTG viability in differentiated neuroblasts; conditions: 50 μM or 500 μM, 24 hours; for cell morphology: phase contrast
Method: Cell Titer-Glo (CTG) luminescent cell viability assay: Human neuroblastoma (SK-N-SH) cells cultured in minimal essential medium (MEM) supplemented with 1% fetal bovine serum (FBS) and 1% penicillin (100 U/ml)/streptomycin (100 μg/ml) were differentiated with 10 μM all-trans retinoic acid for 7 days. After resting for 24 hours in the low serum medium, the cells were seeded in 24 well (10^5 cells/well) culture plates in fresh medium and incubated with 50 μM or 500 μM of individual GA or control peptide for additional 24 hours. The cultures were then photographed using a phase contrast Leica microscope (Leica Microsystems Inc, Buffalogrove, Ill.). Subsequently, the cells were harvested, lysed with lysis buffer (M-PER, Pierce) and the lysate was assessed for metabolic activity using the luciferase based CTG assay (CTG, Promega, Madison, Wis.). Briefly, cell lysate (5 μL) in 25 μL of phosphate buffered saline was transferred to an opaque white 96-well plate, and then 30 μL of CTG assay solution was added. The relative luminescent signal (RLT) was quantified using a Glowmax luminometer (Promega).

[5] = target: T1, Recombinant human p65 protein (r-p65) (Homo sapiens, UniProt Q04206); experiment: Plate binding ELISA of GA/PGA with r-p65 (KD by method of Friguet)
T1 construct: purchased Ori-Gene Technologies Inc., Rockville, Md; TP320780
T1 sequence (Q04206 whole entry): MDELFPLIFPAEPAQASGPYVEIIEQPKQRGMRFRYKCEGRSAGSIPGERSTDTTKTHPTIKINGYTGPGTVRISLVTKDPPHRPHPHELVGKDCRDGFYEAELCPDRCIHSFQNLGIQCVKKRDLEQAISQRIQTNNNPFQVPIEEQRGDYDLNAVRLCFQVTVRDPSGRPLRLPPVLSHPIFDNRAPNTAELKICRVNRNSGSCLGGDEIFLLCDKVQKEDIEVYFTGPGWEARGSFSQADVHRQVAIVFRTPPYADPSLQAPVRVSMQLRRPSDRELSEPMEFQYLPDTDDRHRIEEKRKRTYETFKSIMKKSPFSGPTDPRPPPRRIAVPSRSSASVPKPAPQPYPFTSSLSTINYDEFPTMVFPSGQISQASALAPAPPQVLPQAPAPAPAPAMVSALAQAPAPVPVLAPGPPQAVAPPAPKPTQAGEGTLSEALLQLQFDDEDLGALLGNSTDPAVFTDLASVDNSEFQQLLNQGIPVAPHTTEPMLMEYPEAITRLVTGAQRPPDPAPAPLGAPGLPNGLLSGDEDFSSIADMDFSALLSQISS
Method: We used similar method to determine direct binding kinetics of GA hexapeptides with human r-p65. […] Absorbance at 650 nm was measured with a mixing time of 30 s using BIORAD microplate reader. […] The dissociation constant of the interaction between the GA or the control peptide and r-p65 was determined by the method of Friguet et al., as described. A fraction of the bound r-p65 (x) and the ratio of bound r-p65 to the free GA or control peptide (y) was determined by the equations: x=(A0−A)/(A0), where A0 is the absorbance of r-p65anti-p65 complex in the absence of bound GA or control peptide and y=(A0−A)/(a0−i0)×(A0−A)/(A0), where a0 is the total concentration of GA or control peptide and i0 is the total concentration of r-p65.
Kinetics of PGA:-p65 interaction: The binding kinetics of top five PGA with full length human r-p65 was assessed as described. Plate bound GILZ-P or PGA at increasing concentrations was probed with r-p65-DDK (Ori-Gene Technologies Inc., Rockville, Md.) at constant concentration and detected with anti-DDK.

[6] = tested on: U373 cells; type: cell-based, human; conditions: Example 9, PGA synthesized with TAT; read-out: IC50 of LDH release extrapolated from regression analysis
Method: Lactate dehydrogenase (LDH) assay: To detect direct GA-induced cell lysis we performed LDH release assays (Roche Molecular Diagnostics). […] Approximately 5×10^4 U373 cells/well were cultured in 96-well plates in the presence of increasing concentrations of individual GA or control peptide from 0.5 μM to 500 μM. Cells treated with 2% triton-X 100 (Sigma Aldrich, St. Louis, Mo.) for 10 minutes served as positive control. Untreated cells served as controls for spontaneous LDH-release. Specific LDH-release was calculated according to the following formula: LDH-release %=100*(GA or control peptide treated cells—untreated cells)/(positive control-untreated cells). The IC50 values were extrapolated by logarithmic estimation. The LD50 in mg/kg was predicted using the formula, Log (LD50)=0.506×(log IC50)+0.475.
Effects of PGA on membrane integrity and apoptosis: The top five PGA were covalently synthesized with the cell penetrating TAT (transcriptional transactivation) peptide to facilitate intracellular delivery (Genescript, N.J.). Membrane integrity of U373 microglial cells exposed to increasing concentration of each PGA from 0.5 μm to 500 μM was assessed by the leakage of intracellular lactate dehydrogenase (LDH) into culture medium (Roche, Ind.).

[7] = tested on: U373 cells; experiment: Annexin-V and propidium iodide apoptosis by flow cytometry; type: cell-based, human; conditions: score 1/0
Method: Detection apoptosis by flow cytometry: To further assess cell cytotoxicity, the apoptotic effects of individual GA or control peptide was evaluated by the Annexin-V and propidium iodide (PI) dual staining method (Annexin-V-Fluos staining kit, Roche Diagnostics, Mannheim, Germany). As opposed to apoptotic cells, necrotic cells with ruptured cell membrane take up PI, the DNA binding dye. Thus, cells which take up both fluorochromes are a mixture of apoptotic and necrotic cells, whereas cells that exclude PI but bind Annexin V are (early) apoptotic cells. U373 cells cultured with varying concentrations of individual GA or control peptide (0.5 μM to 50 μM) for 24 hours were centrifuged and suspended in 100 μl of Annexin V/PI labelling solution (20 μl each of Annexin-V-Fluos labelling reagent and PI in 1 ml of binding buffer) for 15 min at room temperature. After washing the cells were resuspended in PBS:1% paraformaldehyde and analyzed using a FACScan flow cytometer (BD Biosciences, San Jose, Calif.).

[8] = tested on: Aβ1-42 exposed HFB cells; experiment: Cytokines in culture medium of Aβ1-42 exposed HFB; type: cell-based, human; conditions: PGA at IC50 concentration
[9] = dissociation constant, KD, method of Friguet et al.

Substance	LD50 estimated from IC50 [1] [mg/kg]	tolerance of HFB cultures (Δ-RLU, CTG) ([2]; 50 μM peptide)	relative expression of BCl2 in brain tissues [3]	relative expression of BclXL in brain tissues [3]	relative expression of CD14 mRNA in brain tissues [3]	cellular metabolic activity / viability (CTG assay) [4]	cell morphology [4]	Kd ([5]; KD (uM), score 1/0) [µM]	Kd [5, 9] [µM]	IC50 [6] [µM]	% apoptosis at LD50 [7]	LD50 (mM) [1]	tolerance of HFB cultures (ΔRLU, CTG) ([2]; PGA at IC50 concentration)	viability of Aβ1-42 exposed HFB cells ([2]; PGA at IC50 concentration, 24 hours)	viability of Aβ1-42 exposed HFB cells ([2]; 50 μM peptide, vs untreated Aβ1-42 exposed cultures)	AIL-1p concentration in culture supernatant (not shown) [8]	AIL-6 concentration in culture supernatant [8]
Ac-APKPYQPRG-NH2 [CP-3]	237.62	significant toxicity	0.44+/−0.9	0.13+/−0.1	1.2+/−0.1	reduced the viability of the cells at both concentrations tested	morphological changes consistent with cell death										
Ac-EPAPYQPEG-NH2 [PGA-3]								> 3	3.27	0.98	1 (<25)	1 (>100)	well tolerated	significantly higher			
Ac-APKPYQPRG-NH2 [PGA-1]								> 3	4.28	2.27	0 (>25)	0 (<100)	significant toxicity				
Ac-EPAPYQPEG-NH2 [CP-1]	272.78		0.36+/−0.8	0.06+/−0.08	1+/−0.3	did not adversely affect the differentiated neuroblastoma cells	no apparent adverse effects on morphology								not significant		
Ac-EPAPEQPDG-NH2 [PGA-5]								> 3	3.4	2	0 (>25)	1 (>100)	significant toxicity			significantly lower	significantly lower
Ac-EPAPEQPDG-NH2 [CP-2]	237.52	significant toxicity	0.45+/−0.9		2.4+/−2	did not adversely affect the differentiated neuroblastoma cells	no apparent adverse effects on morphology										
